Test [1] addresses BRD4 (BD1+BD2) bromodomain (Homo sapiens (Human), UniProt O60885). As to the kind of experiment: BRD4 binding inhibition (AlphaScreen, GST-BRD4 vs tetraacetylated histone H4 peptide). The method, boiled down: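 GST-BRD4 (BD1+BD2) and biotinylated tetraacetyl-histone H4 peptide, each at 100 nM in HEPES pH 7.4 buffer with BSA and DTT, were combined with compound. Glutathione acceptor and streptavidin donor beads were added, then incubated 30 min at room temperature in the dark. Read-out was AlphaScreen signal.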

Test [2] deals with acute myelogenous leukemia cells (MV-4-11 cells). Put plainly: Cytotoxicity to acute myelogenous leukemia cells (MV-4-11 cells), CCK-8. Particulars: Homo sapiens, MV4-11, 72 h.
The mark [3] stands for this setting: GST-BRD4 (BD1+BD2) / biotinylated acetyl-histone H4 (Lys5,8,12,16) peptide, read-out: IC50, BRD4 binding inhibition.
Where [4] appears, read: GST-BRD4 (BD1+BD2) vs biotinylated acetyl-histone H4 peptide, AlphaScreen, read-out: BRD4 IC50.
The mark [5] stands for this setting: read-out: IC50, cytotoxicity against acute myelogenous leukemia cells.
The mark [6] stands for this setting: read-out: MV-4-11 Cytotoxicity IC50.

SMILES strings stand for the structures. Read-outs that look alike come from different tables or passages of the source.

As for `Cc1nnc2c(NCCCCNC(=O)[C@@H](F)C(C)C)nc3cc(N4CCc5sccc5C4)ccc3n12` [Example 529, N-{4-[7-(6,7-dihydro-4H-thiano[3,2-c]pyridine-5-yl)-1-methyl-[1,2,4]triazolo[4,3-a]quinoxaline-4-ylamino]-butyl}-2-(S)-fluoro-3-methyl-butyramide], the IC50 in test [1] (setting [3]) is ≤ 50 nM; in test [1] (setting [4]), 31 nM; in test [2] (setting [5]), ≤ 200 nM; in test [2] (setting [6]) it was 107 nM.

In the case of `Cc1nnc2c(NCCCCNC(=O)CC(C)C)nc3ccc([N+](=O)[O-])cc3n12` [Example 550, 3-methyl-N-[4-(1-methyl-8-nitro-[1,2,4]triazolo[4,3-a]quinoxaline-4-ylamino)-butyl]-butyramide], the IC50 in test [1] (setting [3]) is ≤ 50 nM; in test [1] (setting [4]) it was 21 nM; in test [2] (setting [5]), ≤ 200 nM; in test [2] (setting [6]) it was 157 nM.

Consider `Cc1nnc2c(NCCCCNC(=O)CC(C)C)nc3ccc(N)cc3n12` [Example 551, N-[4-(8-amino-1-methyl-[1,2,4]triazolo[4,3-a]quinoxaline-4-ylamino)-butyl]-3-methyl-butyramide], for which the IC50 is ≤ 50 nM in test [1] (setting [3]), 12 nM in test [1] (setting [4]), ≤ 200 nM in test [2] (setting [5]) and 135 nM in test [2] (setting [6]).

Turning to `CCCNc1ccc2nc(NCCCCNC(=O)CC(C)C)c3nnc(C)n3c2c1` [Example 552, 3-methyl-N-[4-(1-methyl-8-propylamino-[1,2,4]triazolo[4,3-a]quinoxaline-4-ylamino)-butyl]-butyramide], the IC50 in test [1] (setting [3]) is ≤ 50 nM; in test [1] (setting [4]) it was 21 nM; in test [2] (setting [5]), ≤ 200 nM; in test [2] (setting [6]) it was 157 nM.

Turning to `Cc1nnc2c(NCCCCNC(=O)CC(C)C)nc3ccc(NCCCC#N)cc3n12` [Example 553, N-{4-[8-(3-cyano-propylamino)-1-methyl-[1,2,4]triazolo[4,3-a]quinoxaline-4-ylamino]-butyl}-3-methyl-butyramide], the IC50 in test [1] (setting [3]) was ≤ 50 nM; in test [1] (setting [4]), 24 nM; in test [2] (setting [5]), ≤ 200 nM; in test [2] (setting [6]) it was 174 nM.

In the case of `COc1cc2nc(NCCCCNC(=O)CC(C)C)c3nnc(C)n3c2cc1[N+](=O)[O-]` [Example 555, N-[4-(7-methoxy-1-methyl-8-nitro-[1,2,4]triazolo[4,3-a]quinoxaline-4-ylamino)-butyl]-3-methyl-butyramide], the IC50 in test [1] (setting [4]) is 65 nM; in test [2] (setting [5]) it was ≤ 200 nM; in test [2] (setting [6]), 118 nM.

For `COc1cc2nc(NCCCCNC(=O)CC(C)C)c3nnc(C)n3c2cc1N` [Example 556, N-[4-(8-amino-7-methoxy-1-methyl-[1,2,4]triazolo[4,3-a]quinoxaline-4-ylamino)-butyl]-3-methyl-butyramide], the IC50 in test [1] (setting [3]) was ≤ 50 nM; in test [1] (setting [4]) it was 31 nM; in test [2] (setting [5]), ≤ 200 nM; in test [2] (setting [6]) it was 1 nM.

For `CNc1cc2c(cc1OC)nc(NCCCCNC(=O)CC(C)C)c1nnc(C)n12` [Example 557, N-[4-(7-methoxy-1-methyl-8-methylamino-[1,2,4]triazolo[4,3-a]quinoxaline-4-ylamino)-butyl]-3-methyl-butyramide], the values for the IC50 in test [1] (setting [3]), in test [1] (setting [4]) and in test [2] (setting [6]) were ≤ 50 nM, 13 nM and 280 nM, respectively.

For `COc1cc2nc(NCCCCNC(=O)CC(C)C)c3nnc(C)n3c2cc1NO` [Example 558, N-[4-(8-hydroxyamino-7-methoxy-1-methyl-[1,2,4]triazolo[4,3-a]quinoxaline-4-ylamino)-butyl]-3-methyl-butyramide], the IC50 is 57 nM in test [1] (setting [4]), ≤ 200 nM in test [2] (setting [5]) and 87 nM in test [2] (setting [6]).

`CCCNc1cc2c(cc1OC)nc(NCCCCNC(=O)CC(C)C)c1nnc(C)n12` [Example 559, N-[4-(7-methoxy-1-methyl-8-propylamino-[1,2,4]triazolo[4,3-a]quinoxaline-4-ylamino)-butyl]-3-methyl-butyramide]: the IC50 in test [1] (setting [3]) was ≤ 10 nM; in test [1] (setting [4]) it was 7 nM; in test [2] (setting [5]), ≤ 200 nM; in test [2] (setting [6]) it was 141 nM.

`C#CCNc1cc2c(cc1OC)nc(NCCCCNC(=O)CC(C)C)c1nnc(C)n12` [Example 560]: the IC50 in test [1] (setting [3]) is ≤ 50 nM; in test [1] (setting [4]), 37 nM; in test [2] (setting [5]) it was ≤ 200 nM; in test [2] (setting [6]), 71 nM.

With `COc1cc2nc(NCCCCNC(=O)CC(C)C)c3nnc(C)n3c2cc1NC(=O)CC(C)C` [Example 562, N-{4-[7-methoxy-1-methyl-8-(3-methyl-butyrylamino)-[1,2,4]triazolo[4,3-a]quinoxaline-4-ylamino]-butyl}-3-methyl-butyramide], the IC50 is ≤ 50 nM in test [1] (setting [3]), 32 nM in test [1] (setting [4]) and 375 nM in test [2] (setting [6]).

As to `COc1cc2nc(NCCCCNC(=O)CC(C)C)c3nnc(C)n3c2cc1NC(=O)CC(C)(C)C` [Example 563], the values for the IC50 in test [1] (setting [3]) and in test [2] (setting [6]) were ≤ 50 nM and 559 nM, respectively.

Take `COc1cc2nc(NCCCCNC(=O)CC(C)C)c3nnc(C)n3c2cc1NC(=O)Cc1ccccc1` [Example 564]: the IC50 was ≤ 10 nM in test [1] (setting [3]), 9 nM in test [1] (setting [4]) and 610 nM in test [2] (setting [6]).

Consider `COc1cc2nc(NCCCCNC(=O)CC(C)C)c3nnc(C)n3c2cc1NS(=O)(=O)CC(C)C` [Example 567], for which the half-inhibitory concentration (IC50) in test [1] (setting [3]) is ≤ 50 nM; in test [1] (setting [4]) it was 13 nM; in test [2] (setting [5]), ≤ 200 nM; in test [2] (setting [6]), 200 nM.

Consider `COc1cc2nc(NCCCCNC(=O)CC(C)C)c3nnc(C)n3c2cc1NC(=O)Nc1ccccc1` [Example 568, N-{4-[7-methoxy-1-methyl-8-(3-phenyl-ureido)-[1,2,4]triazolo[4,3-a]quinoxaline-4-ylamino]-butyl}-3-methyl-butyramide], for which the IC50 was ≤ 50 nM in test [1] (setting [3]), 28 nM in test [1] (setting [4]) and 658 nM in test [2] (setting [6]).

For the compound `COc1cc2nc(NCCCCNC(=O)CC(C)C)c3nnc(C)n3c2cc1NC(=S)NC(C)C` [Example 569, N-{4-[8-(3-isopropyl-thioureido)-7-methoxy-1-methyl-[1,2,4]triazolo[4,3-a]quinoxaline-4-ylamino]-butyl}-3-methyl-butyramide], the IC50 in test [1] (setting [3]) is ≤ 50 nM; in test [1] (setting [4]) it was 11 nM; in test [2] (setting [6]), 237 nM.

As to `COc1cc2nc(NCCCCNC(=O)CC(C)C)c3nnc(C)n3c2cc1F` [Example 574, N-[4-(8-fluoro-7-methoxy-1-methyl-[1,2,4]triazolo[4,3-a]quinoxaline-4-ylamino)-butyl]-3-methyl-butyramide], the IC50 was ≤ 50 nM in test [1] (setting [3]), 40 nM in test [1] (setting [4]), ≤ 200 nM in test [2] (setting [5]) and 45 nM in test [2] (setting [6]).

`COc1cc2c(cc1F)nc(NCCCCNC(=O)CC(C)C)c1nnc(C)n12` [Example 575, N-[4-(7-fluoro-8-methoxy-1-methyl-[1,2,4]triazolo[4,3-a]quinoxaline-4-ylamino)-butyl]-3-methyl-butyramide]: the IC50 in test [1] (setting [4]) came out at 51 nM; in test [2] (setting [6]) it was 337 nM.

Turning to `COc1cc2nc(NCCCCNC(=O)CC(C)C)c3nnc(C)n3c2cc1OCCN1CCOCC1` [Example 576, N-{4-[7-methoxy-1-methyl-8-(2-morpholine-4-yl-ethoxy)-[1,2,4]triazolo[4,3-a]quinoxaline-4-ylamino]-butyl}-3-methyl butyramide], the IC50 in test [1] (setting [4]) was 52 nM; in test [2] (setting [5]), ≤ 200 nM; in test [2] (setting [6]) it was 86 nM.

For `Cc1noc(C)c1-c1ccc2c(c1)nc(NCCCCNC(=O)CC(C)C)c1nnc(C)n12` [Example 585, N-{4-[7-(3,5-dimethyl-isoxazol-4-yl)-1-methyl-[1,2,4]triazolo[4,3-a]quinoxaline-4-ylamino]-butyl}-3-methyl-butyramide], the IC50 in test [1] (setting [3]) was ≤ 10 nM; in test [1] (setting [4]) it was 5 nM; in test [2] (setting [6]) it was 280 nM.

Take `COc1ccc2c(c1)nc(NCCCCNC(=O)CC(C)C)c1nnc(C(F)(F)F)n12` [Example 590, N-[4-(7-methoxy-1-trifluoromethyl-[1,2,4]triazolo[4,3-a]quinoxaline-4-ylamino)-butyl]-3-methyl-butyramide]: the IC50 is ≤ 50 nM in test [1] (setting [3]), 29 nM in test [1] (setting [4]) and 490 nM in test [2] (setting [6]).

`CCC(C)CC(=O)NCCCCNc1nc2cc(OC)ccc2n2c(C(F)(F)F)nnc12` (stereo not shown) [Example 591, 3-methyl-pentanoic acid-[4-(7-methoxy-1-trifluoromethyl-[1,2,4]triazolo[4,3-a]quinoxaline-4-ylamino)-butyl]-amide]: the half-maximal inhibitory concentration (IC50) in test [1] (setting [3]) is ≤ 50 nM; in test [1] (setting [4]), 28 nM; in test [2] (setting [6]), 880 nM.

Turning to `CCc1nnc2c(NCCCCNC(=O)OC(C)(C)C)nc3cc(OC)c(OC)cc3n12` [Example 594, [4-(1-ethyl-7,8-dimethoxy-[1,2,4]triazolo[4,3-a]quinoxaline-4-ylamino)-butyl]-carbamic acid-tert-butylester], the IC50 in test [1] (setting [4]) came out at 76 nM; in test [2] (setting [6]), 880 nM.

As for `CCc1nnc2c(NCCCCNC(=O)OC(C)C)nc3cc(OC)c(OC)cc3n12` [Example 596, [4-(1-ethyl-7,8-dimethoxy-[1,2,4]triazolo[4,3-a]quinoxaline-4-ylamino)-butyl]-carbamic acid isopropylester], the results for the IC50 in test [1] (setting [3]), in test [1] (setting [4]) and in test [2] (setting [6]) were ≤ 50 nM, 19 nM and 510 nM, respectively.

As for `CCc1nnc2c(NCCCCNC(=O)CC(C)C)nc3cc(OC)c(OC)cc3n12` [Example 597, N-[4-(1-ethyl-7,8-dimethoxy-[1,2,4]triazolo[4,3-a]quinoxaline-4-ylamino)-butyl]-3-methyl-butyramide], the IC50 was ≤ 50 nM in test [1] (setting [3]), 18 nM in test [1] (setting [4]) and 230 nM in test [2] (setting [6]).
